Measurements reported in the CheMixHub viscosity set.

Assay: xn = mol fraction of the nth substance listed

NS(=O)(=O)O + CN1CCCC1=O
298 K, 101.33 kPa
Settings	viscosity [mPa·s]
x1 = 0.02005	2.01
x1 = 0.03918	2.413
x1 = 0.05851	2.977
x1 = 0.07708	3.724
x1 = 0.09776	4.962

OC1CCCCC1 + CN1CCCC1=O
Settings	viscosity [mPa·s]
303.15 K, 101 kPa, x2 = 0.6223	16.55

CS(C)=O + CN(C)C=O
Settings	viscosity [mPa·s]
298 K, 101.3 kPa, x1 = 0.1668	0.924
298 K, 101.3 kPa, x1 = 0.3195	1.036
298 K, 101.3 kPa, x1 = 0.5201	1.242
298 K, 101.3 kPa, x1 = 0.6689	1.474
298 K, 101.3 kPa, x1 = 0.8514	1.785
298.15 K, 101 kPa, x1 = 0.1077	0.89
298.15 K, 101 kPa, x1 = 0.2134	0.99
298.15 K, 101 kPa, x1 = 0.4199	1.11
298.15 K, 101 kPa, x1 = 0.5205	1.24
298.15 K, 101 kPa, x1 = 0.6195	1.37
298.15 K, 101 kPa, x1 = 0.8128	1.61
298.15 K, 101 kPa, x1 = 0.9071	1.78
303.15 K, 101 kPa, x2 = 0.1	1.617
303.15 K, 101 kPa, x2 = 0.2	1.466
303.15 K, 101 kPa, x2 = 0.3	1.331
303.15 K, 101 kPa, x2 = 0.4001	1.228
303.15 K, 101 kPa, x2 = 0.5002	1.109
303.15 K, 101 kPa, x2 = 0.6001	1.025
303.15 K, 101 kPa, x2 = 0.7001	0.952
303.15 K, 101 kPa, x2 = 0.8	0.877
303.15 K, 101 kPa, x2 = 0.9	0.814
313.15 K, 101 kPa, x2 = 0.1	1.365
313.15 K, 101 kPa, x2 = 0.2	1.248
313.15 K, 101 kPa, x2 = 0.3	1.141
313.15 K, 101 kPa, x2 = 0.4001	1.057
313.15 K, 101 kPa, x2 = 0.5002	0.969
313.15 K, 101 kPa, x2 = 0.6001	0.9
313.15 K, 101 kPa, x2 = 0.7001	0.839
313.15 K, 101 kPa, x2 = 0.8	0.775
313.15 K, 101 kPa, x2 = 0.9	0.724
318 K, 101.3 kPa, x1 = 0.159	0.7095
318 K, 101.3 kPa, x1 = 0.3184	0.7948
318 K, 101.3 kPa, x1 = 0.521	0.9101
318 K, 101.3 kPa, x1 = 0.6667	1.032
318 K, 101.3 kPa, x1 = 0.8614	1.226
323.15 K, 101 kPa, x2 = 0.1	1.17
323.15 K, 101 kPa, x2 = 0.2	1.075
323.15 K, 101 kPa, x2 = 0.3	0.99
323.15 K, 101 kPa, x2 = 0.4001	0.922
323.15 K, 101 kPa, x2 = 0.5002	0.85
323.15 K, 101 kPa, x2 = 0.6001	0.792
323.15 K, 101 kPa, x2 = 0.7001	0.74
323.15 K, 101 kPa, x2 = 0.8	0.69
323.15 K, 101 kPa, x2 = 0.9	0.647

CC(C)CC(C)O (stereo unspecified) + CO
298.15 K, 101.33 kPa
Settings	viscosity [mPa·s]
x2 = 0.1191	3.504
x2 = 0.2078	3.263
x2 = 0.3157	2.847
x2 = 0.4359	2.297
x2 = 0.5125	1.958
x2 = 0.6519	1.459
x2 = 0.7023	1.297
x2 = 0.8038	1.002
x2 = 0.9042	0.7423

CCCCC + CO
Settings	viscosity [mPa·s]
293.15 K, 101 kPa, x1 = 0.0471	0.5884
293.15 K, 101 kPa, x1 = 0.0999	0.5839
293.15 K, 101 kPa, x1 = 0.1602	0.5769
293.15 K, 101 kPa, x1 = 0.2288	0.5663
293.15 K, 101 kPa, x1 = 0.3074	0.5509
293.15 K, 101 kPa, x1 = 0.3999	0.5282
293.15 K, 101 kPa, x1 = 0.5084	0.4953
293.15 K, 101 kPa, x1 = 0.6397	0.4464
293.15 K, 101 kPa, x1 = 0.7999	0.3733
298.15 K, 101.33 kPa, x2 = 0.0464	0.245
298.15 K, 101.33 kPa, x2 = 0.0696	0.249
298.15 K, 101.33 kPa, x2 = 0.1597	0.265
298.15 K, 101.33 kPa, x2 = 0.2228	0.279
298.15 K, 101.33 kPa, x2 = 0.4412	0.327
298.15 K, 101.33 kPa, x2 = 0.6294	0.384
298.15 K, 101.33 kPa, x2 = 0.741	0.424
298.15 K, 101.33 kPa, x2 = 0.7958	0.445
298.15 K, 101.33 kPa, x2 = 0.9419	0.518
298.15 K, 101.33 kPa, x2 = 0.9734	0.537
303.15 K, 101 kPa, x1 = 0.0471	0.5267
303.15 K, 101 kPa, x1 = 0.0999	0.5186
303.15 K, 101 kPa, x1 = 0.1602	0.5081
303.15 K, 101 kPa, x1 = 0.2288	0.4945
303.15 K, 101 kPa, x1 = 0.3074	0.4767
303.15 K, 101 kPa, x1 = 0.3999	0.4529
303.15 K, 101 kPa, x1 = 0.5084	0.421
303.15 K, 101 kPa, x1 = 0.6397	0.3765
303.15 K, 101 kPa, x1 = 0.7999	0.3135
313.15 K, 101 kPa, x1 = 0.0471	0.5012
313.15 K, 101 kPa, x1 = 0.0999	0.4866
313.15 K, 101 kPa, x1 = 0.1602	0.4694
313.15 K, 101 kPa, x1 = 0.2288	0.4492
313.15 K, 101 kPa, x1 = 0.3074	0.4254
313.15 K, 101 kPa, x1 = 0.3999	0.3963
313.15 K, 101 kPa, x1 = 0.5084	0.3607
313.15 K, 101 kPa, x1 = 0.6397	0.3156
313.15 K, 101 kPa, x1 = 0.7999	0.2574
